Key:
[1] = system: ICAM-1 expression in human umbilical cord vascular endothelial cells; assay: Inhibitory activity of adhesion molecule expression (ICAM-1, cell-ELISA); type: cell-based; settings: TNFα 1 ng/ml, 37° C., 5 hours
Procedure: (§1) Inhibitory activity of adhesion molecule expression
(§2) Test method: To human umbilical cord vascular endothelial cells (purchased from Kurabo), cultured on gelatin-coated plates, compounds at various concentrations (test compounds) were added, followed by incubation at 37° C. for 15 minutes. Human tumor necrosis factor (TNFα, purchased from Genzyme) was then added to a final concentration of 1 ng/ml, followed by incubation at 37° C. for 3 hours for ELAM-1 expression or for 5 hours for ICAM-1 expression. After the reaction, cells were fixed with glutaraldehyde; the amounts of ELAM-1 and ICAM-1 expressed were determined by cell-ELISA. Anti-ELAM-1 antibody BBA-2 and an anti-ICAM-1 antibody BBA-4 were used as the first antibodies for the defection of ELAM-1 and ICAM-1, respectively, and horse radish peroxidase-labeled rabbit anti-mouse IgG antibody was used as the second antibody to determine the amount of adhesion molecules expressed on cells observed. The compound concentration at which 50% expression was expressed as the 50% inhibitory concentration (IC50), with the amount of expression in the absence of compounds as 100 and the amount of expression in the absence of TNFα as 0.

[2] = system: ELAM-1 expression in human umbilical cord vascular endothelial cells; assay: Inhibitory activity of adhesion molecule expression (ELAM-1, cell-ELISA); type: cell-based; settings: TNFα 1 ng/ml, 37° C., 3 hours
Procedure: as §1, §2

mouse skin allograft = assay: Immunosuppressive action on mouse skin allograft; type: in vivo, mouse (BIOBR donors, C57BL/10 recipients); settings: 16 days
Procedure: Immunosuppressive action on mouse skin allograft
Test method: Male BIOBR mice and C57BL/10 mice, both at 6 weeks of age, were used as donors and recipients, respectively, and Grafts were prepared by killing donors by cervical vertebral dislocation, collecting full-thickness skin grafts from tail using a razor and tweezers, and cutting them into about 5 mm square pieces. Each graft was kept standing on gauze soaked with physiological saline, and used as soon as the recipient was prepared. Transplantation beds were prepared as follows. The recipient's back was clipped using clippers and sterilized with Isodine. Under ether anesthesia, back skin was picked up with tweezers, and a full-thickness skin graft was cut out into an about 5 mm square piece using scissors. The graft was transferred to the transplantation bed thus prepared, and fixed firmly using bandage. At 7 days after surgery, the bandage was removed, and the mice were observed every day to determine the day of complete necrosis of the graft as the rejection day. The compound was intraperitoneally administered in suspension in 5% gum arabic for 16 days after surgery.

SMILES: CCCC=C1SC(=O)N(CCCCOc2cccn3ccnc23)C1=O [compound 22]
- IC50 [1]: 4600 nM
- IC50 [2]: 2900 nM
- Mean Rejection Day (mouse skin allograft; 50 mg/kg/day intraperitoneal, control 13.0): 18.8 days

SMILES: O=c1c(-c2ccccc2)c2n(c(=O)n1CCCCSc1cccc3nccn13)CCCS2(=O)=O [compound 24]
- IC50 [1]: 1100 nM
- IC50 [2]: 800 nM
- Mean Rejection Day (mouse skin allograft; 10 mg/kg/day intraperitoneal, control 13.5): 27.0 days

— patent US5840732A, “Imidazopyridine or imidazopyrimidine compounds, their production and use” (Takeda Chemical Industries Ltd., priority 1994, dated 1998)
